Consider 20 molecules from patent US9469642B2, “Purinone compounds as kinase inhibitors” (Pharmacyclics LLC, priority 2012, dated 2016).

Holding throughout (assay type): biochemical
One assay deals with T1, BTK (Homo sapiens, UniProt Q06187).
T1 construct: purified from insect cells as a full-length construct containing a N-terminal 6×-His tag; His6 (N); host or cells: insect cells (baculovirus Sf21)
Briefly: Btk in vitro inhibitory activity (kinase assay by one of Methods A, B or C). The procedure, abridged: (§1)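 BTK (0.5 nM) and LCK (6 nM) by TR-FRET, ATP at Km, biotinylated peptide, pH 7.4, 1 h; Ki(app) converted to IC50. Alternatively, full-length His6-BTK (1 nM) by mobility shift, 16 μM ATP (Km), 1 μM FAM peptide, pH 7.5, 1 h; IC50 from 12-point 4-parameter fit. Radiometric filter-binding option also used.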

Another assay concerns the target LCK (Homo sapiens, UniProt P06239). Description: Kinase panel inhibition, LCK (one of the methods of Example 76a, 76b, 76c). The gist of the method: as §1
For another assay, the target named is EGFR (Homo sapiens, UniProt P00533). Briefly: Kinase panel inhibition, EGFR (one of the methods of Example 76a, 76b, 76c). The procedure, abridged:
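Kinase activity was measured by TR-FRET in 50 μL reactions in 96-well plates. Enzyme, inhibitor, ATP at its Km and a biotinylated peptide substrate were incubated for one hour at pH 7.4 in buffer containing 20 mM Tris, 50 mM NaCl, MgCl2, MnCl2, 1 mM DTT, 0.1 mM EDTA, 0.01% bovine serum albumin, 0.005% Tween-20 and 10% DMSO. Reactions were stopped with EDTA in Lance buffer. Streptavidin-APC and Eu-labeled p-Tyr100 antibody were added for one hour. The 665/615 nm emission ratio gave activity. IC50 was derived from Ki(app) fitted with BatchKi.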

As a reminder, the IC50 is the midpoint of a concentration-inhibition curve.

Molecules are shown by their SMILES.

Chain of EGFR (P00533 25-1210, species assumed): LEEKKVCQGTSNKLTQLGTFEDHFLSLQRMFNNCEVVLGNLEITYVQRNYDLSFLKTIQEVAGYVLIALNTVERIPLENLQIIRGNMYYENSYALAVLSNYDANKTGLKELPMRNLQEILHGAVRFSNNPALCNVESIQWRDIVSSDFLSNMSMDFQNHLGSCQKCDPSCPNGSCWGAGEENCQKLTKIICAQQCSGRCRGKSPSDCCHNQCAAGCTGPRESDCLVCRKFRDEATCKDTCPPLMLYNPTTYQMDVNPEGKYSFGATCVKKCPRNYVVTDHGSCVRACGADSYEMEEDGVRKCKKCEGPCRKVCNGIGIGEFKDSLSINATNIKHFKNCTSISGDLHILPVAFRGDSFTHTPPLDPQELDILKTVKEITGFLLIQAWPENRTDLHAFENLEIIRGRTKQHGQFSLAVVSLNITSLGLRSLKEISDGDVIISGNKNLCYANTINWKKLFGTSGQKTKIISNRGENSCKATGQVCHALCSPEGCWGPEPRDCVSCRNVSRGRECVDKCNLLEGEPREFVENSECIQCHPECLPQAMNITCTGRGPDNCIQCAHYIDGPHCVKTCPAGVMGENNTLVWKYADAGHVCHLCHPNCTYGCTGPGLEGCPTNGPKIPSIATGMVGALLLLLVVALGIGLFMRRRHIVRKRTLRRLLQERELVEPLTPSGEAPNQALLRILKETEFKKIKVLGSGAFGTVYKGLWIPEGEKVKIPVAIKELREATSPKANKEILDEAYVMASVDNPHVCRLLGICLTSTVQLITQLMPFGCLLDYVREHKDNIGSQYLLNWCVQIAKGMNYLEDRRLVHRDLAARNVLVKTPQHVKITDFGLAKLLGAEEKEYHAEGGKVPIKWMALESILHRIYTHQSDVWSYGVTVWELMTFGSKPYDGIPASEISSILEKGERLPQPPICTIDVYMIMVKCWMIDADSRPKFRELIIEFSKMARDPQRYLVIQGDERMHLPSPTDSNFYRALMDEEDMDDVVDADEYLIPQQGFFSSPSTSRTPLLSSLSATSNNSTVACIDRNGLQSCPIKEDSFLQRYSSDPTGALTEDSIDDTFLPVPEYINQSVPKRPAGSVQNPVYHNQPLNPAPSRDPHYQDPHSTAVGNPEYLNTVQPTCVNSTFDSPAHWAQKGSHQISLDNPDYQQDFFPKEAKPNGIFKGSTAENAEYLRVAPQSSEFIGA
Chain of LCK (P06239 whole entry, species assumed): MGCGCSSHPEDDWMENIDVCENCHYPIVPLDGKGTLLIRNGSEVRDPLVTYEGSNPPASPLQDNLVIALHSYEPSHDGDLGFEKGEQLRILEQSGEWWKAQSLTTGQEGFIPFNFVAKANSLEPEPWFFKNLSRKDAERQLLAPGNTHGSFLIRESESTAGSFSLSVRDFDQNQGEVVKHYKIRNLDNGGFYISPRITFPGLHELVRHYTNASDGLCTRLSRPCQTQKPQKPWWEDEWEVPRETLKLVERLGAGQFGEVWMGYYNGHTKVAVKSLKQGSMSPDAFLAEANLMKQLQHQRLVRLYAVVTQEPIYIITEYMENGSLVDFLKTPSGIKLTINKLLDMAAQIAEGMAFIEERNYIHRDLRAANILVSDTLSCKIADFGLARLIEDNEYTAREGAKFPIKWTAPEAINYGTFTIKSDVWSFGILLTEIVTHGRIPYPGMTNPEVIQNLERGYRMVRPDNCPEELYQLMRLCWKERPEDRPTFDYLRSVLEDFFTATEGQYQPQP
T1 sequence (Q06187 whole entry): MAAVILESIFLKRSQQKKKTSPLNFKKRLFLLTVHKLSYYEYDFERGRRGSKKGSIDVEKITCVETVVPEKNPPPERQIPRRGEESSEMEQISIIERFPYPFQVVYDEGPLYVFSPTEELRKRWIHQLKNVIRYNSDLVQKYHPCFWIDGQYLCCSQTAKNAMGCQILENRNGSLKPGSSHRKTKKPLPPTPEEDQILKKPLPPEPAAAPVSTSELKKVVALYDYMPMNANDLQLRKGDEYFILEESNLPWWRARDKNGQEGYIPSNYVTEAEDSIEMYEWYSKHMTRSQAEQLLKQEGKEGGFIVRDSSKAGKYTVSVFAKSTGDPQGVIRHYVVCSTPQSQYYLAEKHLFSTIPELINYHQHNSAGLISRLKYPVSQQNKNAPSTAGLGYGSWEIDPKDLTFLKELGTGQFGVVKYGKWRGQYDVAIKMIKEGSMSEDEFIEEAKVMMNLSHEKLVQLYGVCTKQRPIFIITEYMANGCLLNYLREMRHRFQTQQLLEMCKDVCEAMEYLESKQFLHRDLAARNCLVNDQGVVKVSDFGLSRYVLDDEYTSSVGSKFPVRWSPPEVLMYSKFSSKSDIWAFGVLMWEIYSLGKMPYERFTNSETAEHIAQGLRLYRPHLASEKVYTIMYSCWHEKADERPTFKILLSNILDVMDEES

As for `Cc1cccc(COc2ccc(-n3c(=O)n(-c4cccc(N(C)C(=O)/C=C/CN(C)C5CC5)c4)c4ncnc(N)c43)cc2)c1` [Compound 239, (E)-N-(3-(6-amino-7-(4-(3-methylbenzyloxy)phenyl)-8-oxo-7H-purin-9(8H)-yl)phenyl)-4-(cyclopropyl(methyl)amino)-N-methylbut-2-enamide], the 50% inhibitory concentration (IC50) on BTK was under 100 nM; at LCK, over 10000 nM; at EGFR it was 1000 to 10000 nM.

Consider `CN(C(=O)/C=C/CN(C)C1CC1)c1cccc(-n2c(=O)n(-c3ccc(OCc4cccc(F)c4)cc3)c3c(N)ncnc32)c1` [Compound 244, (E)-N-(3-(6-amino-7-(4-(3-fluorobenzyloxy)phenyl)-8-oxo-7H-purin-9(8H)-yl)phenyl)-4-(cyclopropyl(methyl)amino)-N-methylbut-2-enamide], for which the results for the IC50 against BTK, against LCK and on EGFR were under 100 nM, over 10000 nM and 1000 to 10000 nM, respectively.

`CN(C(=O)/C=C/c1ccccn1)c1cccc(-n2c(=O)n(-c3ccc(Oc4ccccc4)cc3)c3c(N)ncnc32)c1` [Compound 247, (E)-N-(3-(6-amino-8-oxo-7-(4-phenoxyphenyl)-7H-purin-9(8H)-yl)phenyl)-N-methyl-3-(pyridin-2-yl)acrylamide]: the IC50 against BTK was 100 to 1000 nM; at LCK it was 1000 to 10000 nM; at EGFR it was 1000 to 10000 nM.

Take `Cc1cc(NC(=O)/C=C/CN(C)C2CC2)cc(-n2c(=O)n(-c3ccc(Oc4ccccc4)cc3)c3c(N)ncnc32)c1` [Compound 255, (E)-N-(3-(6-amino-8-oxo-7-(4-phenoxyphenyl)-7H-purin-9(8H)-yl)-5-methylphenyl)-4-(cyclopropyl(methyl)amino)but-2-enamide]: the concentration for half-maximal inhibition (IC50) at BTK is under 100 nM; at LCK, 100 to 1000 nM; against EGFR, 100 to 1000 nM.

`COc1cc(-n2c(=O)n(-c3cccc(N(C)C(=O)/C=C/CN(C)C4CC4)c3)c3ncnc(N)c32)ccc1Oc1ccccc1` [Compound 285, (E)-N-(3-(6-amino-7-(3-methoxy-4-phenoxyphenyl)-8-oxo-7H-purin-9(8H)-yl)phenyl)-4-(cyclopropyl(methyl)amino)-N-methylbut-2-enamide]: the IC50 was under 100 nM against BTK, 1000 to 10000 nM against LCK and 1000 to 10000 nM on EGFR.

As to `Cc1cc(Oc2ccccc2)ccc1-n1c(=O)n(-c2cccc(N(C)C(=O)/C=C/CN(C)C3CC3)c2)c2ncnc(N)c21` [Compound 290, (E)-N-(3-(6-amino-7-(2-methyl-4-phenoxyphenyl)-8-oxo-7H-purin-9(8H)-yl)phenyl)-4-(cyclopropyl(methyl)amino)-N-methylbut-2-enamide], the IC50 against BTK is under 100 nM; against LCK, 1000 to 10000 nM; against EGFR, 1000 to 10000 nM.

With `COc1cc(-n2c(=O)n(-c3cccc(N(C)C(=O)/C=C/CN(C)C4CC4)c3)c3ncnc(N)c32)ccc1OCc1ccccc1` [Compound 295, (E)-N-(3-(6-amino-7-(4-(benzyloxy)-3-methoxyphenyl)-8-oxo-7H-purin-9(8H)-yl)phenyl)-4-(cyclopropyl(methyl)amino)-N-methylbut-2-enamide], the half-maximal inhibitory concentration (IC50) was under 100 nM against BTK, over 10000 nM at LCK and over 10000 nM at EGFR.

For the molecule `Cc1cc(NC(=O)/C=C/CN(C)C2CC2)cc(-n2c(=O)n(-c3ccc(Oc4ccccc4)cc3C)c3c(N)ncnc32)c1` [Compound 298, (E)-N-(3-(6-amino-7-(2-methyl-4-phenoxyphenyl)-8-oxo-7H-purin-9(8H)-yl)-5-methylphenyl)-4-(cyclopropyl(methyl)amino)but-2-enamide], the IC50 was under 100 nM against BTK, 1000 to 10000 nM against LCK and 100 to 1000 nM against EGFR.

On to `COc1cc(NC(=O)/C=C/CN(C)C2CC2)cc(-n2c(=O)n(-c3ccc(Oc4ccccc4)cc3C)c3c(N)ncnc32)c1` [Compound 301, (E)-N-(3-(6-amino-7-(2-methyl-4-phenoxyphenyl)-8-oxo-7H-purin-9(8H)-yl)-5-methoxyphenyl)-4-(cyclopropyl(methyl)amino)but-2-enamide], for which the IC50 is under 100 nM against BTK, 1000 to 10000 nM against LCK and 100 to 1000 nM on EGFR.

Regarding `CN(C/C=C/C(=O)N1CCOc2ccc(-n3c(=O)n(-c4ccc(Oc5cccc(F)c5)cc4)c4c(N)ncnc43)cc21)C1CC1` [Compound 306, (E)-6-amino-9-(4-(4-(cyclopropyl(methyl)amino)but-2-enoyl)-3,4-dihydro-2H-benzo[b][1,4]oxazin-6-yl)-7-(4-(3-fluorophenoxy)phenyl)-7H-purin-8(9H)-one], the IC50 at BTK is under 100 nM; at LCK, 1000 to 10000 nM; against EGFR, 100 to 1000 nM.

For the molecule `CN(C(=O)/C=C/CN(C)[C@H]1CCOC1)c1cccc(-n2c(=O)n(-c3ccc(Oc4cccc(F)c4)cc3)c3c(N)ncnc32)c1` [Compound 309, (S,E)-N-(3-(6-amino-7-(4-(3-fluorophenoxy)phenyl)-8-oxo-7H-purin-9(8H)-yl)phenyl)-N-methyl-4-(methyl(tetrahydrofuran-3-yl)amino)but-2-enamide], the 50% inhibitory concentration (IC50) on BTK was under 100 nM; against LCK, 1000 to 10000 nM; against EGFR it was 1000 to 10000 nM.

Turning to `COc1ccc(-n2c(=O)n(-c3ccc(Oc4cccc(F)c4)cc3)c3c(N)ncnc32)cc1N(C)C(=O)/C=C/CN(C)C1CC1` [Compound 312, (E)-N-(5-(6-amino-7-(4-(3-fluorophenoxy)phenyl)-8-oxo-7H-purin-9(8H)-yl)-2-methoxyphenyl)-4-(cyclopropyl(methyl)amino)-N-methylbut-2-enamide], the 50% inhibitory concentration (IC50) was under 100 nM against BTK, over 10000 nM against LCK and over 10000 nM on EGFR.

For `COc1ccc(-n2c(=O)n(-c3ccc(Oc4ccccc4)cc3)c3c(N)ncnc32)cc1N(C)C(=O)/C=C/CN(C)[C@H]1CCOC1` [Compound 313, (S,E)-N-(5-(6-amino-8-oxo-7-(4-phenoxyphenyl)-7H-purin-9(8H)-yl)-2-methoxyphenyl)-N-methyl-4-(methyl(tetrahydrofuran-3-yl)amino)but-2-enamide], the values for the IC50 on BTK, on LCK and at EGFR were under 100 nM, 1000 to 10000 nM and 1000 to 10000 nM, respectively.

Turning to `CN(C/C=C/C(=O)Nc1cccc(-n2c(=O)n(-c3ccc(Oc4cccc(F)c4)cc3)c3c(N)ncnc32)c1)[C@H]1CCOC1` [Compound 316, (S,E)-N-(3-(6-amino-7-(4-(3-fluorophenoxy)phenyl)-8-oxo-7H-purin-9(8H)-yl)phenyl)-4-(methyl(tetrahydrofuran-3-yl)amino)but-2-enamide], the IC50 against BTK is under 100 nM; on LCK it was 1000 to 10000 nM; against EGFR, 100 to 1000 nM.

In the case of `CN(C/C=C/C(=O)Nc1cccc(-n2c(=O)n(-c3ccc(Oc4ccccc4)cc3)c3c(N)ncnc32)c1)[C@H]1CCOC1` [Compound 317, (S,E)-N-(3-(6-amino-8-oxo-7-(4-phenoxyphenyl)-7H-purin-9(8H)-yl)phenyl)-4-(methyl(tetrahydrofuran-3-yl)amino)but-2-enamide], the IC50 at BTK was under 100 nM; against LCK it was 100 to 1000 nM; against EGFR, 100 to 1000 nM.

For the molecule `COCCN(C)C/C=C/C(=O)Nc1cccc(-n2c(=O)n(-c3ccc(Oc4ccccc4)cc3)c3c(N)ncnc32)c1` [Compound 318, (E)-N-(3-(6-amino-8-oxo-7-(4-phenoxyphenyl)-7H-purin-9(8H)-yl)phenyl)-4-((2-methoxyethyl)(methyl)amino)but-2-enamide], the IC50 against BTK is under 100 nM; at LCK, 100 to 1000 nM; on EGFR it was under 100 nM.

Consider `N#C/C(=C\C1CC1)C(=O)N1CCC[C@@H](n2c(=O)n(-c3ccc(Oc4ccccc4)cc3)c3c(N)ncnc32)C1` [Compound 324, (R,E)-2-(3-(6-amino-8-oxo-7-(4-phenoxyphenyl)-7H-purin-9(8H)-yl)piperidine-1-carbonyl)-3-cyclopropylacrylonitrile], for which the IC50 was under 100 nM against BTK, 100 to 1000 nM on LCK and 100 to 1000 nM at EGFR.

As for `CN(C(=O)/C(C#N)=C/C1CC1)c1cccc(-n2c(=O)n(-c3ccc(Oc4ccccc4)cc3)c3c(N)ncnc32)c1` [Compound 325, (E)-N-(3-(6-amino-8-oxo-7-(4-phenoxyphenyl)-7H-purin-9(8H)-yl)phenyl)-2-cyano-3-cyclopropyl-N-methylacrylamide], the IC50 was under 100 nM on BTK, 100 to 1000 nM against LCK and 100 to 1000 nM against EGFR.

With `CN(C(=O)/C=C/c1cn(C)cn1)c1cccc(-n2c(=O)n(-c3ccc(Oc4ccccc4)cc3)c3c(N)ncnc32)c1` [Compound 327, (E)-N-(3-(6-amino-8-oxo-7-(4-phenoxyphenyl)-7H-purin-9(8H)-yl)phenyl)-N-methyl-3-(1-methyl-1H-imidazol-4-yl)acrylamide], the IC50 on BTK lay in the range of 100 to 1000 nM; against LCK, 1000 to 10000 nM; against EGFR, 1000 to 10000 nM.

With `CN(C)C/C=C/C(=O)N(C)[C@H]1CC[C@@H](n2c(=O)n(-c3ccc(Oc4ccccc4)cc3)c3c(N)ncnc32)CC1` [Compound 328, (E)-N-((1s,4s)-4-(6-amino-8-oxo-7-(4-phenoxyphenyl)-7H-purin-9(8H)-yl)cyclohexyl)-4-(dimethylamino)-N-methylbut-2-enamide], the IC50 at BTK, on LCK and at EGFR was under 100 nM throughout.
